Experimental data taken from PMC8950151, “Synthesis and Evaluation of the Antifungal and Toxicological Activity of Nitrofuran Derivatives” (Pharmaceutics, 2022).
Values after ≈ are worked out from the molar mass of the structure shown.

Experiments:
[1] = tested on: Candida albicans (ATCC 90028); assay: Susceptibility test (CLSI M27-A3 broth microdilution, resazurin readout), MIC90; format: cell-based; details: ATCC90028, C. albicans, 24 h, 37 °C
C. krusei (ATCC 6258) [2] = assay: as above; format: cell-based, Candida krusei; details: Pichia kudriavzevii, ATCC6258, 24 h
C. glabrata (ATCC 90030) [3] = assay: as above; format: cell-based, Candida glabrata; details: Nakaseomyces glabratus, ATCC90030, 24 h, 37 °C
[4] = tested on: Cryptococcus neoformans (H99/ATCC 208821); assay: as above; format: cell-based; details: ATCC208821, 48 h
[5] = tested on: Histoplasma capsulatum (G217-B/ATCC 26032); assay: microbe, parasite or virus in culture; format: cell-based; details: ATCC26032, 144 h
T. rubrum (ATCC 28289) [6] = assay: Susceptibility assay for dermatophytes (CLSI M38-A2, resazurin), MIC90; format: cell-based; details: Trichophyton rubrum, ATCC28289, 96 h, 35 °C
[7] = tested on: Trichophyton mentagrophytes (ATCC 11481); assay: as above; format: cell-based; details: Trichophyton mentagrophytes, ATCC11481, 96 h, T. mentagrophytes, 35 °C, read-out: MIC90
[8] = tested on: Candida albicans (ATCC 90028); assay: Minimum fungicidal concentration (MFC); format: cell-based; details: ATCC90028, C. albicans
C. krusei (ATCC 6258) [9] = assay: Minimum fungicidal concentration (MFC); format: cell-based, Candida krusei; details: Pichia kudriavzevii, ATCC6258
C. glabrata (ATCC 90030) [10] = assay: Minimum fungicidal concentration (MFC); format: cell-based, Candida glabrata; details: Nakaseomyces glabratus, ATCC90030; C. glabrata; read-out: MFC
[11] = tested on: Cryptococcus neoformans (H99/ATCC 208821); assay: Minimum fungicidal concentration (MFC); format: cell-based; details: ATCC208821, C. neoformans
[12] = tested on: Histoplasma capsulatum (G217-B/ATCC 26032); assay: microbe, parasite or virus in culture; format: cell-based; details: ATCC26032
[13] = tested on: Paracoccidioides brasiliensis (Pb 18); assay: microbe, parasite or virus in culture; format: cell-based; details: for MFC: Paracoccidioides brasiliensis
T. rubrum (ATCC 28289) [14] = assay: Minimum fungicidal concentration (MFC); format: cell-based, Trichophyton rubrum; details: for MFC: Trichophyton rubrum, ATCC28289
[15] = tested on: Trichophyton mentagrophytes (ATCC 11481); assay: Minimum fungicidal concentration (MFC); format: cell-based; details: Trichophyton mentagrophytes, ATCC11481; T. mentagrophytes
[16] = tested on: A549 (ATCC CCL-185) lung epithelial cell line; assay: Cytotoxicity assay in monolayer by resazurin colorimetric method; format: cell-based; details: Homo sapiens, A549 cells, 72 h
in vivo = details: AU37 [glp-4 (bn2) I, sek-1 (km4) X], Caenorhabditis elegans, C. elegans larvae viability
Protocol: The experiments were carried out with the mutant strain (AU37 [glp-4 (bn2) I; […]]). The strain was maintained on plates containing nematode growth medium (NGM) seeded with Escherichia coli OP50 at 16 °C. The stage of synchronization of young adults at stage L4 was performed for the toxicity test. About 20 larvae were transferred to each well of 96-well plates containing 100 μL of a medium composed of 60% of 50 mM NaCl; 40% BHI broth; 10 mg/mL cholesterol in ethanol; 200 mg/mL ampicillin and 90 mg/mL kanamycin. Then, 100 μL of dilutions of nitrofuran derivatives (showing the best selectivity index against the fungal species) were added. […] Plates were incubated at 25 °C for 24 h. Survival was assessed by the mobility and shape of the nematode (stick-shaped larvae were considered dead, while sinusoidal larvae were considered alive) under an inverted optical microscope on 40× objective lenses.

Candida species = assay: Susceptibility test (CLSI M27-A3), MIC90, stated for Candida species together; format: cell-based; details: read-out: MIC90 against Candida species, Candida species (C. albicans, C. krusei, C. glabrata) taken together
in vitro = details: human
T. rubrum ATCC MYA-4438 = assay: Quality control of dermatophyte susceptibility assay, MIC90; format: cell-based; details: Trichophyton rubrum; T. rubrum ATCC MYA-4438 control strain
Protocol: The experiments were performed according to CLSI […]-A2 [65] for dermatophytes, with minor modifications as described by Costa-Orlandi et al.. The fungal suspensions were adjusted by counting the conidia in the hematocytometer to reach a final concentration of 2.5 × 10^3 cells/mL in RPMI-1640 medium. This was added to the wells at the appropriate compound concentrations and incubated at 35 °C for 96 h with agitation (150 rpm). Visual and colorimetric readings were taken with the addition of 20 μL of 0.03% resazurin [61]. Quality control was performed using the strain of T. rubrum ATCC MYA-4438, with the drug TRB.

Structure (SMILES)	MIC90 [1] [µg/mL]	MIC90 (C. krusei (ATCC 6258) [2]) [µg/mL]	MIC90 (C. glabrata (ATCC 90030) [3]) [µg/mL]	MIC90 [4] [µg/mL]	MIC90 [5] [µg/mL]	MIC90 (T. rubrum (ATCC 28289) [6]) [µg/mL]	MIC90 [7] [µg/mL]	MFC [8] [µg/mL]	MFC (C. krusei (ATCC 6258) [9]) [µg/mL]	MFC (C. glabrata (ATCC 90030) [10]) [µg/mL]	MFC [11] [µg/mL]	MFC [12] [µg/mL]	MFC [13] [µg/mL]	MFC (T. rubrum (ATCC 28289) [14]) [µg/mL]	MFC [15] [µg/mL]	IC50 [16] [µg/mL]	IC50 (in vitro) [µg/mL]	melting point	further results
O=C(/C=C/c1ccccc1)OCc1ccc([N+](=O)[O-])o1 [Compound 1]	3.9 (≈ 14.3 µM)	31.2 (≈ 114 µM)	7.81 (≈ 28.6 µM)	31.2 (≈ 114 µM)	> 250	> 250	15.6 (≈ 57.1 µM)	125 (≈ 457 µM)	31.2 (≈ 114 µM)	> 250	31.2 (≈ 114 µM)	> 250	62.5 (≈ 229 µM)	> 250	15.6 (≈ 57.1 µM)	250 (≈ 915 µM)	240 (≈ 880 µM)		fungistatic / fungicidal profile [13]: fungistatic profile; viability at 24 h, 250 µg/mL (in vivo): > 94%; MIC90 (Candida species): 3.9 µg/mL (≈ 14.3 µM)
O=C(NCCCn1ccnc1)c1ccc([N+](=O)[O-])o1 [Compound 2, N-(3-(1H-imidazol-1-yl)propyl)-5-nitrofuran-2-carboxamide]	> 250	> 250	> 250	≥ 250	250 (≈ 946 µM)	125 (≈ 473 µM)	125 (≈ 473 µM)	> 250	> 250	> 250	≥ 250	> 250	125 (≈ 473 µM)	> 250	125 (≈ 473 µM)	49.1 (≈ 186 µM)	90.8 (≈ 343 µM)	144 to 148 °C	
CS(=O)(=O)c1ccc(C(=O)/C=C/c2ccc([N+](=O)[O-])o2)cc1 [Compound 15, (E)-1-(4-(methylsulfonyl)phenyl)-3-(5-nitrofuran-2-yl)prop-2-en-1-one]	> 250	> 250	> 250	≥ 250	> 250	7.8 (≈ 24.3 µM)	7.8 (≈ 24.3 µM)	> 250	> 250	> 250	≥ 250	> 250	7.81 (≈ 24.3 µM)	15.6 (≈ 48.6 µM)	15.6 (≈ 48.6 µM)	34.2 (≈ 107 µM)	11.5 (≈ 35.8 µM)	197 to 200 °C (dec.)	
O=C(/C=C/c1ccc([N+](=O)[O-])o1)c1ccc(Cl)cc1Cl [Compound 16, (E)-1-(2,4-dichlorophenyl)-3-(5-nitrofuran-2-yl)prop-2-en-1-one]	250 (≈ 801 µM)	> 250	> 250	≥ 250	62.5 (≈ 200 µM)	7.8 (≈ 25 µM)	7.8 (≈ 25 µM)	> 250	> 250	> 250	≥ 250	62.5 (≈ 200 µM)	1.95 (≈ 6.25 µM)	31.2 (≈ 100 µM)	7.8 (≈ 25 µM)	35.6 (≈ 114 µM)	29.9 (≈ 95.8 µM)	164 to 165 °C	fungistatic / fungicidal profile (T. rubrum (ATCC 28289) [14]; MFC versus MIC90): fungistatic profile
CN(C/C=C/C#CC(C)(C)C)Cc1cccc2ccccc12 [TRB, terbinafine]																			MIC90 (T. rubrum ATCC MYA-4438): 0.03 µg/mL (≈ 0.103 µM)
